Target: T1, Anaplastic lymphoma kinase (ALK) (Homo sapiens, UniProt Q9UM73)
T1 construct: purified recombinant GST-ALK
Assay: ELISA-based in vitro kinase assay with peptide substrate
Format: biochemical

T1 sequence (Q9UM73 19-1620): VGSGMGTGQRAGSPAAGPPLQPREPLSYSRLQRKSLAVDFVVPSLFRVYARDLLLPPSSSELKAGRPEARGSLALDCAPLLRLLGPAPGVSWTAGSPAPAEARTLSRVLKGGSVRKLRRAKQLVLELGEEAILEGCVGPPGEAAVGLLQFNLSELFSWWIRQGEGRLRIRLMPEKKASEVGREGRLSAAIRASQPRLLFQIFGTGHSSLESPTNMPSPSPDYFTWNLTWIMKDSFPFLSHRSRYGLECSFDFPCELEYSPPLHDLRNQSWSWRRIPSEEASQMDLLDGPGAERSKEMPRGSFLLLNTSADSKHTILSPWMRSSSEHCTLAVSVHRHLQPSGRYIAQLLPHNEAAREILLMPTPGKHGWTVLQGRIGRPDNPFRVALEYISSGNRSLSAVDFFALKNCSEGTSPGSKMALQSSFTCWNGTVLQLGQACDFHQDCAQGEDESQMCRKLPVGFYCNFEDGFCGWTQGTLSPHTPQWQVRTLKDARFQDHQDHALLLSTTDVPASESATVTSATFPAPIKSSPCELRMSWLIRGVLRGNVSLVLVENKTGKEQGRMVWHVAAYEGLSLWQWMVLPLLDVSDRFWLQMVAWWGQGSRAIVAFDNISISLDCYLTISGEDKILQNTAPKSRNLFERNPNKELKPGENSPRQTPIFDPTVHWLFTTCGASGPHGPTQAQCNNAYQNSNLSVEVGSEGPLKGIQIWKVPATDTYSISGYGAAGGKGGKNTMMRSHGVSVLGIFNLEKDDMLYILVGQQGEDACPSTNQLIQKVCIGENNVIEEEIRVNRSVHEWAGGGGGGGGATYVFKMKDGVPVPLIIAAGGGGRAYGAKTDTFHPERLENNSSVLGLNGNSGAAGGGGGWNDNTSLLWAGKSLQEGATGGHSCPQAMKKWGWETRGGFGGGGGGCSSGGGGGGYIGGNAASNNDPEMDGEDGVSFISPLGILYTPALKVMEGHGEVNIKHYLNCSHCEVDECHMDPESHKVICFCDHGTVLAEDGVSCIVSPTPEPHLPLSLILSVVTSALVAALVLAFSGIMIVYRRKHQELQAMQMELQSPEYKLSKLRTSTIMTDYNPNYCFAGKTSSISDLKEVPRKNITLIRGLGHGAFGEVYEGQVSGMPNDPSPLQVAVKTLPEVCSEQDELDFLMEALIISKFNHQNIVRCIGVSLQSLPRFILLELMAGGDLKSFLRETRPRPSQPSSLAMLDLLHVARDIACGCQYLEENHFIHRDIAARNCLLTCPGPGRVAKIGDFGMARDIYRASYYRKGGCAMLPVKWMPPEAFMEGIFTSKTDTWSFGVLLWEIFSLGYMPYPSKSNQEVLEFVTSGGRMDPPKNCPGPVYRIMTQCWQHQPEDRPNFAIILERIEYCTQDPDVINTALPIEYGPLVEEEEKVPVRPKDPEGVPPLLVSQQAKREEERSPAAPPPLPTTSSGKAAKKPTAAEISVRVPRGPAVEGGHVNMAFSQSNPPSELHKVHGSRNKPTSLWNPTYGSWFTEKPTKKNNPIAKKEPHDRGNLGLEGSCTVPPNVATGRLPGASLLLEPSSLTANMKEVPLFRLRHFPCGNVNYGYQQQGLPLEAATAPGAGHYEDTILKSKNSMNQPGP

IC50: 5.5 µM
SMILES: CC1(C)CCC(CN2CCN(c3ccc(C(=O)NS(=O)(=O)c4ccc(NCC5CCOCC5)c([N+](=O)[O-])c4)c(Oc4cnc5[nH]ccc5c4)c3)CC2)=C(c2ccc(Cl)cc2)C1 [ABT-199]

— PMC11750102, “Inhibition of the anti-apoptotic protein BCL2 in EML4-ALK cell models as a second proposed therapeutic target for non-small cell lung cancer” (PLOS ONE, 2025)
